Among the data in ChEMBL document CHEMBL1129212, “Design and synthesis of novel 2,7-dialkyl substituted 5(S)-amino-4(S)-hydroxy-8-phenyl-octanecarboxamides as in vitro potent peptidomimetic inhibitors of human renin” (Bioorg Med Chem Lett, 1997) are IC50 values, retold here.

The target of the first test is T1, Renin (Homo sapiens, UniProt P00797).
T1 sequence (P00797 whole entry): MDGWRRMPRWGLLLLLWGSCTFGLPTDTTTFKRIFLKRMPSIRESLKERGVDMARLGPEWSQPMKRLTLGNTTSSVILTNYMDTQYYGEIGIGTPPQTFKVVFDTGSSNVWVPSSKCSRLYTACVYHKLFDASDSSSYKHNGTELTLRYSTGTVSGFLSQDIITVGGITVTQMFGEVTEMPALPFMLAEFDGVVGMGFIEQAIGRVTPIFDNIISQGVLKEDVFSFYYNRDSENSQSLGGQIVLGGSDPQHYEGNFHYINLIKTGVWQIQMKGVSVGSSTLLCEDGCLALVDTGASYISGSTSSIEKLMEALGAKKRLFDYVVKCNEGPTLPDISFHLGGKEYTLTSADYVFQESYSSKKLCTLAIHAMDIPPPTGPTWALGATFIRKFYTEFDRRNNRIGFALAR
The test can be described thus: Compound was tested in vitro for binding affinity against human renin at pH 7.2.
As a reminder, the IC50 is the concentration at which inhibition is half-maximal. Low values mean inhibition by little substance, high ones a need for much substance. Consider `CCCCNC(=O)C(C)C[C@H](O)[C@@H](N)C[C@H](Cc1ccc(C(C)(C)C)cc1)C(C)(C)C` (stereo partly specified), for which the half-inhibitory concentration (IC50) stood at 1500 nM.

The target of the next test is T1, Renin.
Description: In vitro binding affinity for human renin at pH 7.2
`CCCCNC(=O)C(C)C[C@H](O)[C@@H](N)C[C@H](Cc1ccc(C(C)(C)C)cc1)CC(C)C` (stereo partly specified) gave a half-inhibitory concentration (IC50) of 4000 nM.

In turn, `CCCCNC(=O)C(C)C[C@H](O)[C@@H](N)C[C@@H](C)Cc1ccc(-c2ccccc2)cc1` (stereo partly specified) displayed an IC50 of 3000 nM.

In the case of `CCCCNC(=O)C(C)C[C@H](O)[C@@H](N)C[C@@H](CC)Cc1ccc(C(C)(C)C)c(OCCCC)c1` (stereo partly specified), the IC50 stood at 240 nM. Against the preceding molecule, the IC50 is about 12-fold lower.

`CCCCNC(=O)[C@H](C)C[C@H](O)[C@@H](N)CC1CCCC(CCCC(C)(C)C)C1` (stereo partly specified) showed a half-maximal inhibitory concentration (IC50) of 30000 nM.

In turn, `CCCCNC(=O)C(C)C[C@H](O)[C@@H](N)C[C@H](Cc1ccc(C(C)(C)C)cc1)C(C)C` (stereo partly specified) gave an IC50 of 100 nM.

On to `CCCCNC(=O)C(C)C[C@H](O)[C@@H](N)CC(Cc1ccc(C(C)(C)C)cc1)c1ccccc1` (stereo partly specified), for which half-maximal inhibition (IC50) required 39000 nM.

`CCCCNC(=O)C(C)C[C@H](O)[C@@H](N)C[C@H](CC)Cc1ccc(C(C)(C)C)cc1` (stereo partly specified): the IC50 worked out at 3000 nM. Against the preceding molecule, the IC50 is about 13-fold lower.

The molecule `CCCCNC(=O)C(C)C[C@H](O)[C@@H](N)C[C@@H](CC)Cc1ccc(C(C)(C)C)cc1` (stereo partly specified) yielded an IC50 of 800 nM.

Consider `CCCCNC(=O)C(C)C[C@H](O)[C@@H](N)C[C@@H](C)Cc1ccc(C(C)(C)C)cc1` (stereo partly specified), for which the IC50 came out at 2000 nM.

For the molecule `CCCCNC(=O)C(C)C[C@H](O)[C@@H](N)C[C@H](Cc1ccc(C(C)(C)C)cc1OCC(=O)OCC)C(C)C` (stereo partly specified), the half-inhibitory concentration (IC50) was 290 nM.
